Laboratory results taken from PubChem BioAssay (NCI).
Values joined by “and” are separate entries in the source; they are usually repeats but may differ in a detail not shown here. Identical values can stand only once.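 Results reflect a 48-hour exposure of cells in 96-well plates to compound at five concentrations. GI50 marks 50% less growth. TGI denotes the concentration required for complete inhibition of growth.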

Columns and labels:
Experiment in all cases: DTP human tumour cell line panel, 48 h
[1] = tested on: CAKI-1 renal
[2] = tested on: CCRF-CEM leukemia
[3] = tested on: RPMI-8226 leukemia
[4] = tested on: U251 CNS
[5] = tested on: OVCAR-3 ovarian
[6] = tested on: M14 melanoma
[7] = tested on: DU-145 prostate
[8] = tested on: MALME-3M melanoma
[9] = tested on: UACC-62 melanoma
[10] = tested on: SK-OV-3 ovarian

Compound	GI50 [1]	TGI [1]	GI50 [2]	TGI [2]	GI50 [3]	TGI [3]	GI50 [4]	TGI [4]	GI50 [5]	TGI [5]	GI50 [6]	TGI [6]	GI50 [7]	TGI [7]	GI50 [8]	TGI [8]	GI50 [9]	TGI [9]	GI50 [10]	TGI [10]
Nc1nc(N)c2cc(Sc3ccc(Cl)cc3)ccc2n1	3.25 µM	16.1 µM	0.815 µM	17.4 µM	1.95 µM	4.99 µM	0.526 µM	1.99 µM	3.5 µM	12.6 µM	0.535 µM	1.98 µM	1.9 µM	14.6 µM	1.25 µM	3.27 µM	0.795 µM	14.5 µM		
COc1ccc(-c2nc(Nc3ccc(F)cc3)nc(Nc3ccc4c(c3)nc(C)n4Cc3ccccc3)n2)cc1			2.88 µM	> 100 µM	2.48 µM	88.1 µM	4.19 µM	> 100 µM	6.54 µM	> 100 µM	3.72 µM	> 100 µM	7.59 µM	> 100 µM	4.32 µM	> 100 µM	6.66 µM	> 100 µM	10.1 µM	> 100 µM
Nc1ncnc2occ(-c3ccc(NC(=O)Nc4cc(C(F)(F)F)ccc4F)cc3)c12	4.36 µM and 1.78 µM	18.2 µM and 9 µM	7.55 µM and 1.58 µM	22.8 µM and > 25 µM	6.29 µM and 5.04 µM	17.7 µM and 16.2 µM	7.26 µM and 4.26 µM	22.8 µM and 11.2 µM	5.44 µM and 3.61 µM	12.1 µM and 9.52 µM	5.86 µM and 2.54 µM	21.4 µM and 7.11 µM	7.01 µM and 2.68 µM	21.1 µM and 9.28 µM	7.15 µM and 4.35 µM	17.6 µM and 12 µM	4.29 µM and 2.33 µM	9.76 µM and 5.8 µM	8.24 µM and 4.19 µM	25 µM and 12.6 µM
Fc1ccc(-c2nn3c(COc4ccccc4Cl)nnc3s2)cc1Oc1ccccc1	19.4 µM	44 µM	> 100 µM	> 100 µM	51.1 µM	> 100 µM	18.4 µM	41.2 µM	22.5 µM	52.5 µM	24.4 µM	54.7 µM	39 µM	> 100 µM	26.2 µM	68.9 µM	17.8 µM	39 µM		
COc1ncnn2ccc(-c3cnc4nc(C)n(Cc5nnc(C(C)F)o5)c4c3)c12 (stereo not drawn)	0.0613 µM	> 100 µM	0.11 µM	> 74.6 µM	0.201 µM	> 45.6 µM	0.249 µM	> 100 µM			0.24 µM	> 40.5 µM	0.288 µM	> 100 µM	0.264 µM	0.75 µM			0.0716 µM	> 100 µM
Nc1n[nH]c2ccc([C@H]3[C@@H]4C5CCC(C5)[C@@H]4c4c(ccc5[nH]ncc45)N3S(=O)(=O)C3CC3)cc12 (stereo partly drawn)	0.156 µM	3.42 µM	0.168 µM	> 21.3 µM	0.176 µM	7.46 µM	0.208 µM	17.5 µM	0.181 µM	7.16 µM	0.146 µM	15.1 µM	0.212 µM	26.7 µM	0.326 µM	40.9 µM	0.137 µM	5.54 µM	5.59 µM	38.8 µM
NS(=O)(=O)c1ccc(N=Nc2c(O)[nH]c3cccc(CCc4ccncc4)c23)cc1	> 25 µM	> 25 µM	> 25 µM	> 25 µM	> 25 µM	> 25 µM	> 25 µM	> 25 µM	> 25 µM	> 25 µM	> 25 µM	> 25 µM	> 25 µM	> 25 µM	> 25 µM	> 25 µM	> 25 µM	> 25 µM	> 25 µM	> 25 µM
Cc1cccc2c1NC(=O)[C@@H](NC(=O)[C@H](CCC(F)(F)F)[C@H](CCC(F)(F)F)C(N)=O)N=C2c1cccc(F)c1	> 100 µM	> 100 µM	> 100 µM	> 100 µM	> 100 µM	> 100 µM	20.2 µM	59.2 µM	33.3 µM	> 100 µM	73.2 µM	> 100 µM	71.4 µM	> 100 µM	50 µM	> 100 µM	28.2 µM	> 100 µM	28.7 µM	91.3 µM
COc1ccc2c(c1)OC(N)=C(C#N)C2c1ccc(F)c(F)c1 (stereo not drawn)	0.394 µM	> 100 µM	0.409 µM	> 100 µM	0.455 µM	31.7 µM	0.425 µM	> 45.5 µM	0.324 µM	3.4 µM	0.325 µM	> 100 µM	0.522 µM	> 46.5 µM	0.619 µM	77.4 µM	0.418 µM	> 100 µM	0.495 µM	> 64.1 µM
CCCC(c1cc(C(C)(C)C)c(O)cc1C)c1cc(C(C)(C)C)c(O)cc1C		15.3 µM		6.88 µM		5.77 µM		6.85 µM		3.93 µM		4.51 µM		14.7 µM		9.78 µM		4.95 µM		12.4 µM
COc1cc2cc(Oc3ccc(NC(=O)Nc4ccc(F)c(C(F)(F)F)c4)cc3)c(C)nc2cc1OCCN1CCOCC1	2.06 µM	9.55 µM	1.72 µM	11.5 µM	1.12 µM	4.25 µM	2.83 µM	11.1 µM	2.94 µM	13.6 µM	1.53 µM	3.31 µM	3.5 µM	15.2 µM	1.57 µM	3.24 µM	1.36 µM	4.24 µM	3.76 µM	26.7 µM
N#CC1(C#N)C2C=CC(C3CC=CC32)C1(C#N)C#N (stereo not drawn)	8.5 µM	3.72 µM and 18.5 µM		3.43 µM	8.86 µM	4.89 µM and 21.1 µM		17.6 µM	6.81 µM	5.1 µM and 14.5 µM	8.72 µM	3.74 µM and 16 µM		16.7 µM	6.13 µM	6.16 µM and 13.1 µM		16.9 µM		> 50 µM
O=C(/C=C/c1cccnc1)c1ccccc1	7.21 µM	20.6 µM	3.2 µM	9.91 µM	2.46 µM	6.24 µM	3.85 µM	15.1 µM	4.25 µM	15.7 µM			13.9 µM	26.9 µM	15.7 µM	35.9 µM	5.14 µM	19.2 µM	14.6 µM	27.9 µM
